In US20150105252A1, “SUBSTITUTED PYRAZOLES AS HERBICIDES” (E I DU PONT DE NEMOURS AND COMPANY, priority 2013, published 2015):

Tests used:
wheat [1] = test: Test C postemergence; format: in vivo, Triticum aestivum; conditions: postemergence
Outline: (§1)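 Scores of 0 (no effect) to 100 (complete control) were assigned by eye after 13–15 days, comparing treated pots with controls. Soil-applied (preemergence) treatments went onto seeds in loam and sand; foliar (postemergence) treatments onto 1- to 4-leaf plants in peat medium.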

lambsquarters [2] = test: Test C postemergence; format: in vivo, Chenopodium album
Outline: as §1

morningglory = test: Test C postemergence; format: in vivo, Ipomoea coccinea
Outline: as §1

crabgrass, large = test: Test A postemergence; format: in vivo, Digitaria sanguinalis
Outline: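 Scoring was visual, on a scale where 100 means complete control and 0 means no effect, comparing treated with untreated plants around 10 days post-application. Compounds in surfactant-containing non-phytotoxic solvent were sprayed onto soil preemergence or onto one- to two-leaf seedlings (2–10 cm) postemergence.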

lambsquarters [3] = test: Test C preemergence; format: in vivo, Chenopodium album; conditions: preemergence
Outline: as §1

barnyardgrass [4] = test: Test B flood; format: in vivo, Echinochloa crus-galli; conditions: 250 g ai/ha, visual rating on 0 to 100 scale (0 no effect, 100 complete control), 13 to 15 days
Outline: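 At two leaves, seedlings received the test compound via the paddy water, pots having been flooded 3 cm over the soil surface and kept so. Greenhouse-held for 13 to 15 days, then judged by eye against controls on a scale running 0 (no effect) to 100 (complete control).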

wheat [5] = test: Test C preemergence; format: in vivo, Triticum aestivum; conditions: preemergence
Outline: as §1

kochia = test: Test C postemergence; format: in vivo, Kochia scoparia
Outline: as §1

barnyardgrass [6] = test: Test C postemergence; format: in vivo, Echinochloa crus-galli
Outline: as §1

chickweed = test: Test C postemergence; format: in vivo, Stellaria media
Outline: as §1

foxtail, giant = test: Test C postemergence; format: in vivo, Setaria faberii
Outline: as §1

velvetleaf = test: Test C preemergence; format: in vivo, Abutilon theophrasti; conditions: preemergence
Outline: as §1

corn = test: Test C postemergence; format: in vivo, Zea mays
Outline: as §1

[7] = Postemergence, 31 g ai/ha, visually evaluated after 13 to 15 days
[8] = postemergence, 62 g ai/ha, scale 0 to 100
[9] = postemergence, 250 g ai/ha, scale 0 to 100 (0 no effect, 100 complete control)
[10] = postemergence, 125 g ai/ha, scale 0 to 100, 0 no effect, 100 complete control
[11] = 31 g ai/ha, visual rating, scale 0 to 100 (0 no effect, 100 complete control), 13 to 15 days
[12] = 62 g ai/ha, scale 0 to 100 (0 no effect, 100 complete control), 13 to 15 days
[13] = 125 g ai/ha, 13 to 15 days, scale 0 to 100, 0 = no effect, 100 = complete control
[14] = 250 g ai/ha, scale 0 to 100, 0 is no effect, 100 is complete control

CCCNC(=O)c1cc(CCF)n(Cc2ccnc(C(F)(F)F)c2)n1 [Compound 177]
Plant response rating, Wheat (wheat [1]; 250 g ai/ha, scale 0 to 100 (0 no effect, 100 complete control)): 20 | Wheat plant response rating (wheat [1]; scale 0 to 100): 15 | Plant response rating (scale of 0 to 100 where 0 is no effect and 100 is complete control), Lambsquarters (lambsquarters [2]; [7]): 65 | Lambsquarters plant response rating (lambsquarters [2]; [8]): 50 | Plant response rating, Lambsquarters (lambsquarters [2]; [9]): 85 | Plant response rating, Lambsquarters (lambsquarters [2]; [10]): 75 | Plant response rating (scale of 0 to 100 where 0 is no effect and 100 is complete control), Morningglory (morningglory; [7]): 60 | Morningglory plant response rating (morningglory; [8]): 40 | Plant response rating, Morningglory (morningglory; [9]): 80 | Plant response rating, Morningglory (morningglory; [10]): 85 | Crabgrass, Large plant response rating (crabgrass, large; Postemergence, 500 g ai/ha, 0 to 100 scale (0 no effect, 100 complete control)): 100 | Crabgrass, Large plant response rating (crabgrass, large; postemergence, 125 g ai/ha, about 10 days, visual rating on 0 to 100 scale (0 no effect, 100 complete control)): 100 | Lambsquarters plant response rating (lambsquarters [3]; [11]): 85 | Lambsquarters plant response rating (lambsquarters [3]; [12]): 98 | Plant response rating, Lambsquarters (lambsquarters [3]; [13]): 98 | Lambsquarters plant response rating (lambsquarters [3]; [14]): 98 | Plant response rating, Barnyardgrass (barnyardgrass [4]): 60 | Wheat plant response rating (wheat [5]; [11]): 10 | Wheat plant response rating (wheat [5]; [12]): 10 | Plant response rating, Wheat (wheat [5]; [13]): 50 | Wheat plant response rating (wheat [5]; [14]): 90 | Plant response rating (scale of 0 to 100 where 0 is no effect and 100 is complete control), Kochia (kochia; [7]): 60 | Kochia plant response rating (kochia; [8]): 85 | Plant response rating, Kochia (kochia; [9]): 90 | Plant response rating, Kochia (kochia; [10]): 90 | Plant response rating (scale of 0 to 100 where 0 is no effect and 100 is complete control), Barnyardgrass (barnyardgrass [6]; [7]): 5 | Barnyardgrass plant response rating (barnyardgrass [6]; [8]): 5 | Plant response rating, Barnyardgrass (barnyardgrass [6]; [9]): 20 | Plant response rating, Barnyardgrass (barnyardgrass [6]; [10]): 10 | Plant response rating (scale of 0 to 100 where 0 is no effect and 100 is complete control), Chickweed (chickweed; [7]): 60 | Chickweed plant response rating (chickweed; [8]): 75 | Plant response rating, Chickweed (chickweed; [9]): 90 | Plant response rating, Chickweed (chickweed; [10]): 70 | Plant response rating (scale of 0 to 100 where 0 is no effect and 100 is complete control), Foxtail, Giant (foxtail, giant; [7]): 5 | Foxtail, Giant plant response rating (foxtail, giant; [8]): 10 | Plant response rating, Foxtail, Giant (foxtail, giant; [9]): 45 | Plant response rating, Foxtail, Giant (foxtail, giant; [10]): 30 | Velvetleaf plant response rating (velvetleaf; [11]): 0 | Velvetleaf plant response rating (velvetleaf; [12]): 35 | Plant response rating, Velvetleaf (velvetleaf; [13]): 50 | Velvetleaf plant response rating (velvetleaf; [14]): 100 | Plant response rating (scale of 0 to 100 where 0 is no effect and 100 is complete control), Corn (corn; [7]): 5 | Corn plant response rating (corn; [8]): 20 | Plant response rating, Corn (corn; [9]): 15 | Plant response rating, Corn (corn; [10]): 15
